# PMC13083723 (Patterns, 2026)
# Where “and” joins values, the source holds several entries; their conditions need not be identical. Identical values can stand only once. Like-named read-outs stand apart in the source and are kept apart here.
# Columns and labels:
# Vero-E6 cells = assay: cells; assay type: cell-based; settings: for activation at 10 µM / activation at 5 µM / activation at 20 µM / EC50: Chlorocebus sabaeus; for activation at 10 µM / activation at 5 µM / activation at 20 µM: Vero C1008, 24 h; for activation at 5 µM: read-out: PLD Effect in % 5 µM; for activation at 20 µM: read-out: PLD Effect in % 20 µM
# CaCo2 cells = settings: 10 μM in-assay concentration; ENZO library; amiodarone as positive control
# A549 cells = assay: PLD assay of predicted ENZO library compounds in A549 cells; settings: Homo sapiens, A549, read-out: PLD effect % in A549
# SARS-CoV-2 [1] = settings: cited from earlier work; for Vero-E6 CPE inhibition %: 10 µM
# A549-ACE2 cells = assay: cells; assay type: cell-based; settings: A549-ACE2, 24 h, read-out: PLD_Effect(%) A549-ACE2
# SARS-CoV-2 [2] = settings: cited from earlier work; for CaCo2 CPE inhibition %: Caco-2, 20 µM
# [3] = cited from earlier work
# [4] = read-out: PLD effect % in Vero-E6
# [5] = read-out: PLD_Effect(%) VERO-E6
# [6] = read-out: PLD Effect in % 10 µM
# [7] = Vero C1008, read-out: PLD EC50 µM
# [8] = value is the negative log10 of mol/L
structure (smiles),measurement,setting,value
CN(C)CCCN1c2ccccc2Sc2ccc(Cl)cc21 [Chlorpromazine],activation at 10 µM,Vero-E6 cells; [4],116%
same,PLD effect % in CaCo2,CaCo2 cells,67.1%
same,activation at 10 µM,A549 cells,80.8%
CN(C/C=C/c1ccccc1)Cc1cccc2ccccc12 [Naftifine],activation at 10 µM,Vero-E6 cells; [4],-1.6%
same,PLD effect % in CaCo2,CaCo2 cells,−3.3%
same,activation at 10 µM,A549 cells,7.5%
"COc1cccc([C@@H](C)NCCCc2ccccc2Cl)c1 [tecalcet, reference compound]",Vero-E6 CPE inhibition %,SARS-CoV-2 [1],-0.13%
same,activation at 10 µM,A549-ACE2 cells,93%
same,activation at 10 µM,Vero-E6 cells; [5],70.1%
same,activation at 5 µM,Vero-E6 cells,59.6%
same,activation at 10 µM,Vero-E6 cells; [6],74.3%
same,activation at 20 µM,Vero-E6 cells,102%
same,EC50,Vero-E6 cells; [7],2.6 µM
same,CaCo2 CPE inhibition %,SARS-CoV-2 [2],78.10%
CN1CCCC(n2nc(Cc3ccc(Cl)cc3)c3ccccc3c2=O)CC1 (stereo not drawn) [Azelastine],activation at 10 µM,Vero-E6 cells; [4],81.7%
same,PLD effect % in CaCo2,CaCo2 cells,36.5%
same,activation at 10 µM,A549 cells,89.8%
CNCC[C@H](Oc1cccc2ccccc12)c1cccs1 [Duloxetine],activation at 10 µM,Vero-E6 cells; [4],95.9%
same,PLD effect % in CaCo2,CaCo2 cells,84.9%
same,activation at 10 µM,A549 cells,108%
"COCC(=O)O[C@]1(CCN(C)CCCc2nc3ccccc3[nH]2)CCc2cc(F)ccc2[C@@H]1C(C)C [mibefradil, reference compound]",Vero-E6 CPE inhibition %,SARS-CoV-2 [1],-0.26
same,"pchembl_value (type AC50), Dopamine D3 receptor",[3],6.08
same,"pchembl_value (type AC50), Mu opioid receptor",[3],6.01
same,"pchembl_value (type AC50), Serotonin 1a (5-HT1a) receptor",[3],6.13
same,AC50,"[3]; read-out: AC50 (value), Dopamine D3 receptor",0.825 µM
same,AC50,"[3]; read-out: AC50 (value), Mu opioid receptor",0.979 µM
same,AC50,"[3]; read-out: AC50 (value), Serotonin 1a (5-HT1a) receptor",0.746 µM
same,IC50,"[3]; read-out: IC50 (value), Voltage-gated L-type calcium channel alpha-1C subunit",0.25 µM
same,"pchembl_value (type IC50), Voltage-gated L-type calcium channel alpha-1C subunit",[3]; [8],6.60
same,"pchembl_value (type IC50), Voltage-gated T-type calcium channel alpha-1G subunit",[3]; [8],6.00 and 7.19
same,"pchembl_value (type IC50), Voltage-gated T-type calcium channel alpha-1H subunit",[3]; [8],6.00 and 6.89
same,"pchembl_value (type IC50), Voltage-gated T-type calcium channel alpha-1I subunit",[3]; [8],6.90 and 6.00 and 6.89
same,activation at 10 µM,A549-ACE2 cells,97.4%
same,activation at 10 µM,Vero-E6 cells; [5],88.2%
same,activation at 5 µM,Vero-E6 cells,62%
same,activation at 10 µM,Vero-E6 cells; [6],80.5%
same,activation at 20 µM,Vero-E6 cells,2.41%
same,EC50,"Vero-E6 cells; Vero C1008, read-out: PLD EC50",2.45 µM
same,CaCo2 CPE inhibition %,SARS-CoV-2 [2],52.45%
"NCCC(Oc1ccc(C(F)(F)F)cc1)c1ccccc1 (stereo not drawn) [norfluoxetine, reference compound]",Vero-E6 CPE inhibition %,SARS-CoV-2 [1],-0.11%
same,activation at 10 µM,A549-ACE2 cells,108%
same,activation at 10 µM,Vero-E6 cells; [5],62.2%
same,activation at 5 µM,Vero-E6 cells,92.1%
same,activation at 10 µM,Vero-E6 cells; [6],112%
same,activation at 20 µM,Vero-E6 cells,198%
same,EC50,Vero-E6 cells; [7],1.96 µM
same,CaCo2 CPE inhibition %,SARS-CoV-2 [2],94.99%
"CNCCC(Oc1ccc(C(F)(F)F)cc1)c1ccccc1 (stereo not drawn) [Fluoxetine, reference compound]",activation at 10 µM,Vero-E6 cells; [4],111%
same,activation at 10 µM,A549 cells,108%
CN1CCC[C@@H]1CCO[C@](C)(c1ccccc1)c1ccc(Cl)cc1 [Clemastine],activation at 10 µM,Vero-E6 cells; [4],30.1%
same,PLD effect % in CaCo2,CaCo2 cells,6.9%
same,activation at 10 µM,A549 cells,50.4%
C[C@@H](NCCCc1cccc(C(F)(F)F)c1)c1cccc2ccccc12 [Cinacalcet],activation at 10 µM,Vero-E6 cells; [4],43%
same,PLD effect % in CaCo2,CaCo2 cells,20.9%
same,activation at 10 µM,A549 cells,105%
OCCN1CCN(CCCN2c3ccccc3Sc3ccc(C(F)(F)F)cc32)CC1 [Fluphenazine],activation at 10 µM,Vero-E6 cells; [4],90.3%
same,PLD effect % in CaCo2,CaCo2 cells,95.4%
same,activation at 10 µM,A549 cells,77.4%
CNCC[C@@H](Oc1ccccc1C)c1ccccc1 [Atomoxetine],activation at 10 µM,Vero-E6 cells; [4],27.7%
same,PLD effect % in CaCo2,CaCo2 cells,0.7%
same,activation at 10 µM,A549 cells,70.9%
CN(C)CCCN1c2ccccc2CCc2ccc(Cl)cc21 [Clomipramine],activation at 10 µM,Vero-E6 cells; [4],70.9%
same,PLD effect % in CaCo2,CaCo2 cells,74.6%
same,activation at 10 µM,A549 cells,66.2%
CSc1ccc2c(c1)N(CCC1CCCCN1C)c1ccccc1S2 (stereo not drawn) [Thioridazine],activation at 10 µM,Vero-E6 cells; [4],44.7%
same,PLD effect % in CaCo2,CaCo2 cells,22.7%
same,activation at 10 µM,A549 cells,33.5%
CN1CCN(CCCN2c3ccccc3Sc3ccc(C(F)(F)F)cc32)CC1 [Trifluoperazine],activation at 10 µM,Vero-E6 cells; [4],102%
same,PLD effect % in CaCo2,CaCo2 cells,63.2%
same,activation at 10 µM,A549 cells,97.8%
CC(CN1c2ccccc2Sc2ccccc21)N(C)C (stereo not drawn) [Promethazine],activation at 10 µM,Vero-E6 cells; [4],90.7%
same,PLD effect % in CaCo2,CaCo2 cells,37.8%
same,activation at 10 µM,A549 cells,81.9%
"CN1CCN(c2ccc(C(=O)Nc3n[nH]c4ccc(Cc5cc(F)cc(F)c5)cc34)c(NC3CCOCC3)c2)CC1 [entrectinib (RXDX-101), entrectinib, reference compound]",Vero-E6 CPE inhibition %,SARS-CoV-2 [1],toxic
same,Vero-E6 EC50 µM,SARS-CoV-2 [1],toxic
same,PLD EC50 µM,Vero-E6 cells,toxic
same,PLD Effect in % 5 µM,Vero-E6 cells; 5 µM,toxic
same,PLD Effect in % 10 µM,Vero-E6 cells; 10 µM,toxic
same,PLD Effect in % 20 µM,Vero-E6 cells; 20 µM,toxic
same,CaCo2 CPE inhibition %,SARS-CoV-2 [2],toxic
same,CaCo2 EC50 µM,SARS-CoV-2 [2],toxic
